Experiments:
[1] = tested on: AC29 cells that do not express MTP but stably express ACAT1 or ACAT2; test: Cellular cholesteryl ester synthesis in AC29 cells that do not express MTP; format: cell-based; details: AC29 cells stably expressing ACAT1 or ACAT2
Experimental: Next, the effect of these inhibitors on cellular cholesteryl ester synthesis was examined. […] In these cells, MTP inhibitor BMS 197636 had no effect on cellular cholesteryl ester synthesis (FIG. 9, J and K). However, incubation of these cells with ACAT inhibitor 148817 reduced radio-labeled cholesteryl esters by 83-87% (FIG. 9, J, K).

Caco-2 cells = Caco-2 cells treated with MTP and ACAT antagonists, alone or in combination; format: cell-based; design: inhibition of cellular esterification of [3H] cholesterol: dose or concentration left out as unconfirmed
Experimental: Thus, it was hypothesized that MTP (BMS 197636) and ACAT (1 488 17) antagonists would inhibit cellular esterification by independent mechanisms and their effect would be additive. To test this hypothesis, Caco-2 cells were treated with different amounts of these inhibitors, alone or in combination, and the inhibition was compared with cells that were not exposed to any inhibitors (FIG. 9, L-N). Increasing concentrations of BMS 197636 decreased apoB secretion (FIG. 9, L). In contrast, ACAT inhibitor had no effect on apoB secretion. […] ApoAI secretion was resistant to both the inhibitors (FIG. 9, M). […] These inhibitors in combination reduced cholesteryl ester synthesis by 45 +/−4% (FIG. 9, N). Thus, MTP and ACAT act in tandem and facilitate cellular cholesteryl esterification.

[2] = Effect of efflux enhancer and cholesterol biosynthesis inhibitor on plasma lipids and liver function enzymes in PBS and pIpC injected animals; format: in vivo, mice; details: 50 mg/Kg oral gavage every day for 2 weeks; for plasma cholesterol levels / plasma triglyceride levels: MTP gene deleted (pIpC injected) mice
Text: In this Example, blood was collected from tail vein of animals on day 1 of the experiment and used to measure plasma lipid and liver function enzyme levels (Day 1, “Control”). Conditional MTP deletion was achieved by injecting pIpC three times in […] mice on alternate days. Control group mice (n=2) received either PBS (open bars) or pIpC (closed bars) injections. […] On day 8, blood was again collected to measure changes in plasma lipid and liver function enzyme levels. Mice were sacrificed on day 16 and plasma samples were then assayed for total cholesterol (A), triglyceride (B), ALT (C) and AST (D) levels. Each measurement was performed in triplicate. The asterisks show statistically significant differences between PBS and pIpC injected mice. (*, p<0.05, **, p<0.01, ***, p<0.001.)

[3] = Effect of efflux enhancer and cholesterol biosynthesis inhibitor on hepatic mRNA, MTP activity and lipid levels in PBS and pIpC injected animals; format: in vivo; details: liver of drug administered pIpC injected mice
Text: In this Example, total RNA was isolated from the liver of drug administered PBS and pIpC injected mice and used for quantitative RT-PCR of HMG-CoA reductase (FIG. 5, Panel A), ABCA1 (FIG. 5, Panel B), MTP (FIG. 5, Panel C) as well as ARPp0 mRNA. The ratio of candidate gene to ARPp0 in one PBS injected mice was used for normalization. Liver tissues were also used to measure MTP activity (FIG. 5, Panel D). In addition, triglyceride (FIG. 5, Panel E), total (FIG. 5, Panel F), Free (FIG. 5, Panel G) and Esterified (FIG. 5, Panel H) cholesterol levels were measured. (*, p<0.05, **, p<0.01, ***, p<0.001.)

## CCCNC(=O)C1(CCCCN2CCC(N3Cc4ccccc4C3=O)CC2)c2ccccc2-c2ccccc21 [BMS 197636]
[1]
  cellular cholesteryl ester synthesis: no effect
Caco-2 cells
  ApoAI secretion: resistant
Caco-2 cells; increasing concentrations, inhibitor alone
  apoB secretion: decreased
Caco-2 cells; individually
  inhibition of cellular esterification of [3H] cholesterol: 25 +/−2%

## O=S(=O)(c1ccccc1)N(CC(F)(F)F)c1ccc(C(O)(C(F)(F)F)C(F)(F)F)cc1 [T0901317]
[2]
  plasma cholesterol levels: not significantly altered
  plasma triglyceride levels: not significantly altered
[3]
  increases in hepatic free cholesterol levels in MTP gene deleted animals: reduced

## CCCCCCCCCCCCCCCC(=O)O[C@H]1CC[C@@]2(C)C(=CC[C@H]3[C@@H]4CC[C@H]([C@H](C)CCCC(C)C)[C@@]4(C)CC[C@@H]32)C1 [cholesteryl palmitate]
Liver microsomes; liver microsomes incubated 30 min, centrifuged
  concentration up to which microsomes are enriched with cholesterol (saturation thereafter): approximately 1.25 μM
Liver microsomes; liver microsomes, 0.5 μM cholesteryl palmitate
  inhibition of cholesteryl ester synthesis: 32%

## CC[C@H](C)C(=O)O[C@H]1C[C@@H](C)C=C2C=C[C@H](C)[C@H](CC[C@@H]3C[C@@H](O)CC(=O)O3)[C@H]21 [lovastatin, Lovastatin]
[2]
  plasma cholesterol levels: not significantly altered
  plasma triglyceride levels: not significantly altered
[2]; pIpC injected mice
  increase in plasma ALT levels due to MTP gene deletion: not seen
  increase in plasma AST levels due to MTP gene deletion: not seen
[3]
  increases in hepatic free cholesterol levels in MTP gene deleted animals: reduced

From patent US20090197947A1, “MEDICAMENTS AND METHODS FOR LOWERING PLASMA LIPID LEVELS AND SCREENING DRUGS” (The Research Foundation of State University of New York, priority 2008, published 2009)
